Assay results from patent US5688830A, “Treatment of neuropathic pain” (Syntex (U.S.A.) Inc., priority 1997, dated 1997).
Like-named read-outs stand apart in the source and are kept apart here.

Key:
[1] = test system: voltage-gated sodium channels ([3H]BTX binding, rat heart); test: [3H]BTX binding assay, rat heart membranes
Description: (§1) The following assays characterize the interaction of the compounds of Formula I with ligand binding sites on voltage-gated sodium channels.
(§2) Frozen tissues were obtained from Pel-Freez Biologicals (Rogers, AR). Tissues were homogenized in 10 volumes of a Tris-sucrose buffer (10 mM Tris-HCl, 250 mM sucrose, pH 7.4 at 4° C.) using 10 strokes with a glass-glass, hand-held homogenizer. The homogenates were filtered through nylon mesh and then centrifuged at 1,000×g for 15 minutes. The pellets were resuspended in a Hepes buffer (50 mM Hepes, 130 mM choline chloride, 5 mM glucose, 5.4 mM KCl, pH 7.4 at 4° C.). The resuspended pellets were centrifuged at 1,000×g for 15 minutes, resuspended in a Hepes buffer (50 mM Hepes, 130 mM choline chloride, 5 mM glucose, 5.4 mM KCl, pH 7.4 at 25° C.) and, frozen at -70° C. until used in binding assays.
(§3) Cell membranes prepared as in Example 10A above were incubated with 16 nM [^3 H]BTX in 250 μl of Hepes buffer (50 mM Hepes, 130 mM choline chloride, 5 mM glucose, 5.4 mM KCl, pH 7.4 at 25° C.). Nonspecific binding was defined in the presence of 1 mM veratridine. Unless otherwise specified, PbTx (0.1 μM) and LqTx (50 μg/ml) were included in the assays. […] Filters were rinsed with 3×1 ml of ice cold 50 mM Tris-HCl (pH 7.4 at 4° C.) and the bound radioactivity was determined by scintillation counting (Packard Top-count).

[2] = test system: voltage-gated sodium channels ([3H]BTX binding, rat dorsal root ganglion); test: [3H]BTX binding assay, rat dorsal root ganglion membranes
Description: as §1, §2, §3

[3] = test system: [3H]STX binding site on the rat brain sodium channel; test: [3H]STX binding assay
Description: as §1, §2
Membranes as prepared in Example 10A above were incubated at 37° C. for 30 minutes in 250 μl of a Hepes buffer (50 mM Hepes, 130 mM choline chloride, 5.5 mM glucose, 0.8 mM MgSO4, 5.4 mM KCl, pH 7.4 at 37° C.) containing 1 nM [^3 H]STX. Nonspecific binding was defined with 1 μM tetrodotoxin (TTX). […] The filters were rinsed with 3×1 ml ice cold H2 O and the bound radioactivity determined in a Packard 1900 liquid scintillation counter using Aquasol scintillation fluid.

[4] = test system: local anesthetic site of the sodium channel in rat brain cortex membranes; test: [3H]PD85639 binding assay
Description: as §1, §2
Membranes as prepared in Example 10A above were incubated with 3 nM [^3 H]PD 85639 in 250 μl of Hepes buffer (50 mM Hepes, 130 mM choline chloride, 5 mM glucose, 5.4 mM KCl, pH 7.4 at 25° C. with Tris base). Nonspecific binding was defined in the presence of 0.1 mM PD85639. […] Filters were rinsed with 3×1 ml of ice cold 50 mM Tris-HCl (pH 7.4 at 4° C.) and the bound radioactivity was determined by scintillation counting (Packard Top-count).

[5] = test system: rat brain type IIA sodium channel; test: [14C]Guanidinium ion influx assay, rat brain type IIA sodium channel in CHO cells; type: cell-based
Description: (§4) Chinese hamster ovary cells stably expressing the rat brain type IIA sodium channel subunit were maintained in RPMI 1640 with 10% fetal bovine serum and […] G-418. Chinese hamster lung cells stably expressing the human heart (hH1a) sodium channel subunit were maintained in DMEM with 5% fetal bovine serum and 300 μg/ml G-418. Both cells were subcultured and grown to confluence in 24-well plates 2-3 days before each experiment. After the growth medium was removed, the cells were washed with warm buffer (25 mM Hepes-Tris, 135 mM choline chloride, 5.4 mM potassium chloride, 0.98 mM magnesium sulfate, 5.5 mM glucose, and 1 mg/ml BSA, pH 7.4) and incubated in buffer on a 36° C. slide warmer for approximately 10 minutes. Various concentrations of the test compounds or standard sodium channel blockers (10 μl) and then veratridine (100 μM) were added to each well. After the cells were exposed to veratridine for 5 minutes, 5 μM of [^14 C]guanidinium was added, incubated with the radioligand, washed with 4 ml of ice-cold buffer, and dissolved in 0.1N sodium hydroxide. The radioactivity and the protein concentration of each cell lysate were determined by liquid scintillation counting and the protein assay using Pierce BCA reagent.

[6] = test system: human heart (hH1a) sodium channel; test: [14C]Guanidinium ion influx assay, human heart (hH1a) sodium channel in Chinese hamster lung cells; type: cell-based
Description: as §4

[7] = test system: cold allodynia in rats; test: Cold allodynia in vivo assay (chronic constriction injury), acute studies; design: species or system rat; details: subcutaneous; for ED50: Rattus norvegicus, sc
Description: This assay determines the effectiveness of compounds in relieving one of the symptoms of neuropathic pain produced by unilateral mononeuropathy, namely cold allodynia. Unilateral mononeuropathy was produced in rats using the Chronic Constriction Injury model performed essentially as described by Bennet and Xie, Pain, (1988) 33:87-107. Briefly, the rats were anesthetized with an intraperitoneal dose of pentobarbital sodium (65 mg/kg) with additional doses of anesthetic given as needed. The lateral aspect of each rat's hind limb was shaved and scrubbed with Novasan. Using aseptic technique, an incision was made on the lateral aspect of the hind limb at the mid-thigh level. The biceps femoris was bluntly dissected to expose the sciatic nerve. On the right hind limb of each rat, four loosely tied ligatures were made around the sciatic nerve approximately 1-2 millimeters apart. On the left side of each rat, an identical dissection was performed except that the sciatic nerve was not ligated. The muscle was closed with a continuous suture pattern, and the skin was closed with wound clips. Each rat was placed individually into a plexiglass chamber with a metal plate 6 cm from the bottom. This chamber was filled with ice water to a depth of 2.5 cm above the metal plate, with the temperature of the bath maintained at 0° C. throughout the experiment. A timer was started, and the rat's response latency was measured to the nearest tenth of a second. A "response" was defined as a rapid withdrawal of the right ligated hindpaw completely out of the water while the animal was stationary and not pivoting. An exaggerated limp while the animal was walking was not scored as a response. Maximum immersion time was 20 seconds with a 20 minute interval between trials. The screening criteria were 1) the average of two trials was less than or equal to 13 seconds, and 2) there was consistency across the two trial scores. Animals were screened for hypersensitivity to cold on post-surgery days 4 through 10, and selected for inclusion in dose-response studies based on the criteria described above. The pre-dose screening values were used as the animal's baseline cold allodynia scores. For acute studies, the animals received either subcutaneous or oral injections and were tested for cold allodynia at 1, 3, and sometimes 5 hours post-dose. The selection of doses was similar to that of Example 12C.

[8] = test system: neuropathic pain models; test: Neuropathic pain models / standard assays (summary statements); type: in vivo; details: vs methylamine and propylamine analogues and isomers thereof
[9] = cold allodynia, acute, 1 hr, read-out: ED50 1 hr
[10] = cold allodynia, acute, in words

Row | SMILES | inhibition of [3H]BTX binding [1] | inhibition of [3H]BTX binding [2] | affinity for the [3H]STX binding site [3] | inhibition of [3H]PD85639 binding to the local anesthetic site [4] | inhibition of veratridine-stimulated [14C]Guanidinium ion influx [5] | inhibition of veratridine-stimulated [14C]Guanidinium ion influx [6] | ED50 [7, 9] | Emax 1 hr ([7]; cold allodynia, acute, 1 hr) | anti-allodynic effect, acute dosing ([7]; 5 mg/kg, 1, 3 or 5 hours post-dose) | activity in standard assays compared with close analogues [8] | ED50 ([7]; cold allodynia, acute, 3 hr, read-out: ED50 3 hr) | Emax 3 hr ([7]; cold allodynia, acute, 3 hr) | duration of action in vivo compared with racemate, (S)-enantiomer, or II [7, 10] | maximal analgesic activity (Emax) compared with III or IV [7, 10] | maximal analgesic activity compared with racemate, (S)-enantiomer, or II [7, 10] | potency (ED50) comparison of (R)-isomers [7, 10]
1 | CCNC(C)COc1c(C)cccc1C (racemic) [Formula I racemate, [2-(2,6-dimethylphenoxy)-1-methylethyl]-ethylamine] | inhibited | inhibited | no detectable affinity | inhibited | inhibited | inhibited | 15.7 mg/kg | 82% | no significant anti-allodynic effects | unexpectedly more active | – | – | – | – | – | –
2 | CCN[C@H](C)COc1c(C)cccc1C [Formula I (R)-, (R)-[2-(2,6-dimethylphenoxy)-1-methylethyl]-ethylamine] | – | – | – | – | – | – | 37 mg/kg | 91% | – | – | 23.4 mg/kg | 87% | longer duration of action | significantly greater maximal analgesic activity | greater maximal analgesic activity | comparable potency
